The source of these data is patent US20040141955A1, “Compositions related to a novel endophytic fungi and methods of use” (priority 2001, published 2004).

Read-outs that look alike come from different tables or passages of the source.

One test relates to R. solani. The test is classed as cell-based. Conditions: for Colony diameter at 3 days (mm) / Viability: single compound; for Colony diameter at 3 days (mm): untreated control 70-72 mm; for lethal effect on R. solani: similar to that observed when R. solani is exposed to M. albus; for Percent Inibition of Colony growth at 3 days: 30 μl (0.92) of compound, or 30 μl each (0.92) in mixtures, per 65 mL head space. The method, then: In one set of experiments, a Petri plate divided by plastic walls into 3 equal spaces was used for the assay. A plug of R. solani was placed in one section of the Petri plate containing PDA. On another section of the plate, a lx2 cm piece of sterile filter paper was loaded with the test compound(s). All plates were wrapped with two layers of saran film and incubated at room temperature. The head space in each plate was 65 ml. Removing the agar plug and placing it onto a fresh PDA Petri plate determined the viability of R. Solani exposed to each test compound. Control experiments were also conducted along side without test compound(s).
The diameter of R. solani colonies on untreated control plates was 70-72 mm. The (+) symbol in the viability column of each table above indicates continued viability of the organism after exposure to and removal from the given compound or mixture, while the (−) symbol indicates death of the organism. Multiple (+) and (−) symbols in the same column indicate the results of multiple trials.
Synergism between the volatile organic components produced by M. albus was studied using the method of Limpel as described by Richer (Richer, D. L. 1987). The determination of synergy as described by Limpel can be represented by the following equation: […]
Where Ee is the expected additive effect of the two antifungal compounds, X is the observed percentage of inhibition of the test organism when antifungal agent A is applied alone at the rate used in the mixture, and Y is the observed percentage inhibition of the test organism when antifungal agent B is used alone at the rate used in the mixture.
Experimental studies were set up to determine if synergy exists between the components produced by M. albus. The biological activity of individual volatile organic compounds and mixtures of volatile organic compounds was tested according to the method described in Example 10 above. The observed inhibitory effects of the volatile organic compounds were then compared to the expected additive effects as calculated from the equation above.

For test [1], the system named is selected group of 7 test fungi. As to the kind of experiment: Artificial atmosphere test of esters and individual esters. The test is classed as cell-based.
Experimental: In another set of experiments, test solutions were prepared by placing the volatile organic compounds isolatable from Muscodor albus cultures grown on potato dextrose agar (PDA) in vials in the relative proportions that they occurred in the gas phase of such cultures. The test mixture was placed in a presterilized microcup (4×6 mm) located in the center of a Petri plate containing PDA. When not in use, the mixture was stored at 0° C. The test organisms, freshly growing and excised on 3 mm^3 agar blocks (at least 3 agar blocks per test fungus), were placed 2-3 cm from the microcup and the plate wrapped with two layers of parafilm and grown for 2 or more days at 23° C. Measurements were made on mycelial growth from the edge of the agar blocks. However, in the case of bacteria and Candida albicans they were streaked on the test side of the PDA plate and checked for new visible growth and viability by restreaking from the original area of the agar plate that had been inoculated. Appropriate controls were also set up in which no test solution was placed into the microcup. Tests on 3.2-90 μl of the artificial mixture per 50 CC of air space above the PDA plate were done on 3 replicates in order to obtain IC50 data for each test organism. Viability of the test microbes was made by aseptically removing the small agar block and placing it on a PDA plate and observing growth after 1-3 days.
To determine the relative biological activity of each class of compounds, individual classes were also tested in the relative amounts in which they occur at the optimum concentration of the entire mixture, which is 60 μl of test mixture per 50 CC of air space above the culture in a standard Petri plate. For instance, the esters represent 44% of the mixture of the identified volatiles and were tested at 26.4 μl/50 CC (0.53 μl/CC) air space and the same procedure was used for each of the other classes of compounds that were identified. This was done with a selected group of 7 test fungi.
Each compound in the class of esters was individually evaluated. […]
Setting [2] is: amount 0.92 (60 μl/65 mL head space).

In the case of `CCC(C)CO` (centres unmarked) [2-Methyl-1-butanol], the “Colony diameter at 3 days (mm)” value in the test with R. solani (setting [2]) is “no growth”.

As for `CC(C)CCOC(=O)C(C)C` [propionic acid, 2-methyl, 3-methylbutyl ester], the “inhibitory bioactivity of the individual ester” value in test [1] (each ester individually evaluated, comparable test) was “minimal inhibitory bioactivity”.

As for `CC(C)C(=O)O` [Isobutyric acid], the “lethal effect on R. solani” value in the test on R. solani was “lethal effect”. In addition, in the test on R. solani (setting [2]), the Viability entry was “no” and the “Colony diameter at 3 days (mm)” value is “no growth”.

Consider `CC(=O)OCCC(C)C` [3-methylbutyl acetate, 1-butanol, 3-methyl, acetate], for which the “death of test fungus” value in test [1] (standard 3 day exposure period) is “under no conditions in any test, was death of any test fungus observed”. In addition, in test [1] (tested at the level of 0.32 μl/CC (62% of all identified combined esters)), the “inhibitory bioactivity of the individual ester” value is on record as “almost completely mimicked the results of all esters”.

Take `CCCC(=O)OCC` [Ethyl butyrate]: the “Percent Inibition of Colony growth at 3 days” value in the test on R. solani is reported as 86%. The “Colony diameter at 3 days (mm)” value in the test with R. solani (setting [2]) is on record as “no growth”.

As to `CC(C)CCO` [3-methyl-1-butanol], the “lethal effect on R. solani” value in the test with R. solani is “lethal effect”. Also, the “Colony diameter at 3 days (mm)” value in the test with R. solani (amount 0.46 (30 μl/65 mL head space)) is reported as “fuzz”. Moreover, in the test with R. solani (setting [2]), the Viability result was “no” and the “Colony diameter at 3 days (mm)” value is reported as “no growth”.

Turning to `CCOC(=O)CC` [Ethyl propionate], in the test on R. solani, the “Percent Inibition of Colony growth at 3 days” value was 76%.
